Tests used:
[1] = tested on: CCRF-CEM; experiment: Antitumor activity against human CCRF-CEM cells assessed as cell growth inhibition at 10 uM incubated for 48 hrs by sulforhodamine B assay; assay type: functional; conditions: read-out: GI
[2] = tested on: HL-60(TB); experiment: Antitumor activity against human HL-60(TB) cells assessed as cell growth inhibition at 10 uM incubated for 48 hrs by sulforhodamine B assay; assay type: functional; conditions: read-out: GI
[3] = tested on: K562; experiment: Antitumor activity against human K562 cells assessed as cell growth inhibition at 10 uM incubated for 48 hrs by sulforhodamine B assay; assay type: functional; conditions: read-out: GI
[4] = tested on: MOLT-4; experiment: Antitumor activity against human MOLT4 cells assessed as cell growth inhibition at 10 uM incubated for 48 hrs by sulforhodamine B assay; assay type: functional; conditions: read-out: GI
[5] = tested on: RPMI-8226; experiment: Antitumor activity against human RPMI8226 cells assessed as cell growth inhibition at 10 uM incubated for 48 hrs by sulforhodamine B assay; assay type: functional; conditions: read-out: GI
[6] = tested on: SR; experiment: Antitumor activity against human SR cells assessed as cell growth inhibition at 10 uM incubated for 48 hrs by sulforhodamine B assay; assay type: functional; conditions: read-out: GI
[7] = tested on: EKVX; experiment: Antitumor activity against human EKVX cells assessed as cell growth inhibition at 10 uM incubated for 48 hrs by sulforhodamine B assay; assay type: functional; conditions: read-out: GI
[8] = tested on: HOP-92; experiment: Antitumor activity against human HOP92 cells assessed as cell growth inhibition at 10 uM incubated for 48 hrs by sulforhodamine B assay; assay type: functional; conditions: read-out: GI
[9] = tested on: NCI-H226; experiment: Antitumor activity against human NCI-H226 assessed as cell growth inhibition at 10 uM incubated for 48 hrs by sulforhodamine B assay; assay type: functional; conditions: read-out: GI
[10] = tested on: NCI-H23; experiment: Antitumor activity against human NCI-H23 cells assessed as cell growth inhibition at 10 uM incubated for 48 hrs by sulforhodamine B assay; assay type: functional; conditions: read-out: GI
[11] = tested on: NCI-H460; experiment: Antitumor activity against human NCI-H460 assessed as cell growth inhibition at 10 uM incubated for 48 hrs by sulforhodamine B assay; assay type: functional; conditions: read-out: GI
[12] = tested on: NCI-H522; experiment: Antitumor activity against human NCI-H522 cells assessed as cell growth inhibition at 10 uM incubated for 48 hrs by sulforhodamine B assay; assay type: functional; conditions: read-out: GI
[13] = tested on: COLO 205; experiment: Antitumor activity against human COLO205 cells assessed as cell growth inhibition at 10 uM incubated for 48 hrs by sulforhodamine B assay; assay type: functional; conditions: read-out: GI
[14] = tested on: HCC 2998; experiment: Antitumor activity against human HCC2998 cells assessed as cell growth inhibition at 10 uM incubated for 48 hrs by sulforhodamine B assay; assay type: functional; conditions: read-out: GI
[15] = tested on: HCT-116; experiment: Antitumor activity against human HCT116 cells assessed as cell growth inhibition at 10 uM incubated for 48 hrs by sulforhodamine B assay; assay type: functional; conditions: read-out: GI
[16] = tested on: HCT-15; experiment: Antitumor activity against human HCT15 cells assessed as cell growth inhibition at 10 uM incubated for 48 hrs by sulforhodamine B assay; assay type: functional; conditions: read-out: GI
[17] = tested on: HT-29; experiment: Antitumor activity against human HT-29 cells assessed as cell growth inhibition at 10 uM incubated for 48 hrs by sulforhodamine B assay; assay type: functional; conditions: read-out: GI
[18] = tested on: KM12; experiment: Antitumor activity against human KM12 cells assessed as cell growth inhibition at 10 uM incubated for 48 hrs by sulforhodamine B assay; assay type: functional; conditions: read-out: GI
[19] = tested on: SF-268; experiment: Antitumor activity against human SF268 cells assessed as cell growth inhibition at 10 uM incubated for 48 hrs by sulforhodamine B assay; assay type: functional; conditions: read-out: GI
[20] = tested on: SF-295; experiment: Antitumor activity against human SF295 cells assessed as cell growth inhibition at 10 uM incubated for 48 hrs by sulforhodamine B assay; assay type: functional; conditions: read-out: GI
[21] = tested on: SNB-19; experiment: Antitumor activity against human SNB-19 cells assessed as cell growth inhibition at 10 uM incubated for 48 hrs by sulforhodamine B assay; assay type: functional; conditions: read-out: GI
[22] = tested on: SNB-75; experiment: Antitumor activity against human SNB-75 cells assessed as cell growth inhibition at 10 uM incubated for 48 hrs by sulforhodamine B assay; assay type: functional; conditions: read-out: GI
[23] = tested on: U-251; experiment: Antitumor activity against human U251 cells assessed as cell growth inhibition at 10 uM incubated for 48 hrs by sulforhodamine B assay; assay type: functional; conditions: read-out: GI
[24] = tested on: LOX IMVI; experiment: Antitumor activity against human LOX IMVI cells assessed as cell growth inhibition at 10 uM incubated for 48 hrs by sulforhodamine B assay; assay type: functional; conditions: read-out: GI
[25] = tested on: Malme-3M; experiment: Antitumor activity against human MALME-3M cells assessed as cell growth inhibition at 10 uM incubated for 48 hrs by sulforhodamine B assay; assay type: functional; conditions: read-out: GI
[26] = tested on: M14; experiment: Antitumor activity against human M14 cells assessed as cell growth inhibition at 10 uM incubated for 48 hrs by sulforhodamine B assay; assay type: functional; conditions: read-out: GI
[27] = tested on: MDA-MB-435; experiment: Antitumor activity against human MDA-MB-435 cells assessed as cell growth inhibition at 10 uM incubated for 48 hrs by sulforhodamine B assay; assay type: functional; conditions: read-out: GI
[28] = tested on: SK-MEL-28; experiment: Antitumor activity against human SK-MEL-28 cells assessed as cell growth inhibition at 10 uM incubated for 48 hrs by sulforhodamine B assay; assay type: functional; conditions: read-out: GI
[29] = tested on: UACC-62; experiment: Antitumor activity against human UACC-62 cells assessed as cell growth inhibition at 10 uM incubated for 48 hrs by sulforhodamine B assay; assay type: functional; conditions: read-out: GI
[30] = tested on: IGROV-1; experiment: Antitumor activity against human IGROV1 cells assessed as cell growth inhibition at 10 uM incubated for 48 hrs by sulforhodamine B assay; assay type: functional; conditions: read-out: GI
[31] = tested on: OVCAR-3; experiment: Antitumor activity against human OVCAR-3 cells assessed as cell growth inhibition at 10 uM incubated for 48 hrs by sulforhodamine B assay; assay type: functional; conditions: read-out: GI
[32] = tested on: OVCAR-4; experiment: Antitumor activity against human OVCAR-4 cells assessed as cell growth inhibition at 10 uM incubated for 48 hrs by sulforhodamine B assay; assay type: functional; conditions: read-out: GI
[33] = tested on: OVCAR-8; experiment: Antitumor activity against human OVCAR-8 cells assessed as cell growth inhibition at 10 uM incubated for 48 hrs by sulforhodamine B assay; assay type: functional; conditions: read-out: GI
[34] = tested on: NCI/ADR-RES; experiment: Antitumor activity against human NCI/ADR-RES cells assessed as cell growth inhibition at 10 uM incubated for 48 hrs by sulforhodamine B assay; assay type: functional; conditions: read-out: GI
[35] = tested on: SK-OV-3; experiment: Antitumor activity against human SK-OV-3 cells assessed as cell growth inhibition at 10 uM incubated for 48 hrs by sulforhodamine B assay; assay type: functional; conditions: read-out: GI
[36] = tested on: 786-0; experiment: Antitumor activity against human 786-0 cells assessed as cell growth inhibition at 10 uM incubated for 48 hrs by sulforhodamine B assay; assay type: functional; conditions: read-out: GI
[37] = tested on: A498; experiment: Antitumor activity against human A498 cells assessed as cell growth inhibition at 10 uM incubated for 48 hrs by sulforhodamine B assay; assay type: functional; conditions: read-out: GI
[38] = tested on: ACHN; experiment: Antitumor activity against human ACHN cells assessed as cell growth inhibition at 10 uM incubated for 48 hrs by sulforhodamine B assay; assay type: functional; conditions: read-out: GI
[39] = tested on: RXF 393; experiment: Antitumor activity against human RXF 393 cells assessed as cell growth inhibition at 10 uM incubated for 48 hrs by sulforhodamine B assay; assay type: functional; conditions: read-out: GI
[40] = tested on: SN12C; experiment: Antitumor activity against human SN12C cells assessed as cell growth inhibition at 10 uM incubated for 48 hrs by sulforhodamine B assay; assay type: functional; conditions: read-out: GI
[41] = tested on: UO-31; experiment: Antitumor activity against human UO-31 cells assessed as cell growth inhibition at 10 uM incubated for 48 hrs by sulforhodamine B assay; assay type: functional; conditions: read-out: GI
[42] = tested on: PC-3; experiment: Antitumor activity against human PC-3 cells assessed as cell growth inhibition at 10 uM incubated for 48 hrs by sulforhodamine B assay; assay type: functional; conditions: read-out: GI
[43] = tested on: MCF7; experiment: Antitumor activity against human MCF7 cells assessed as cell growth inhibition at 10 uM incubated for 48 hrs by sulforhodamine B assay; assay type: functional; conditions: read-out: GI
[44] = tested on: MDA-MB-231; experiment: Antitumor activity against human MDA-MB-231/ATCC cells assessed as cell growth inhibition at 10 uM incubated for 48 hrs by sulforhodamine B assay; assay type: functional; conditions: read-out: GI
[45] = tested on: Hs-578T; experiment: Antitumor activity against human HS 578T cells assessed as cell growth inhibition at 10 uM incubated for 48 hrs by sulforhodamine B assay; assay type: functional; conditions: read-out: GI
[46] = tested on: BT-549; experiment: Antitumor activity against human BT-549 cells assessed as cell growth inhibition at 10 uM incubated for 48 hrs by sulforhodamine B assay; assay type: functional; conditions: read-out: GI
[47] = tested on: MDA-MB-468; experiment: Antitumor activity against human MDA-MB-468 cells assessed as cell growth inhibition at 10 uM incubated for 48 hrs by sulforhodamine B assay; assay type: functional; conditions: read-out: GI
[48] = tested on: SW-620; experiment: Antitumor activity against human SW620 cells assessed as cell growth inhibition at 10 uM incubated for 48 hrs by sulforhodamine B assay; conditions: SW-620, 48 h, read-out: GI

CCN(CC)c1ccc(-c2nc3c4ccccc4c4ccccc4c3o2)c(O)c1
inhibition of growth at 10 µM [1]: 41.4% | inhibition of growth at 10 µM [2]: 31.4% | inhibition of growth at 10 µM [3]: 79.7% | inhibition of growth at 10 µM [4]: 39% | inhibition of growth at 10 µM [5]: 44.6% | inhibition of growth at 10 µM [6]: 72.4% | inhibition of growth at 10 µM [7]: 20.2% | inhibition of growth at 10 µM [8]: 11% | inhibition of growth at 10 µM [9]: < 10% | inhibition of growth at 10 µM [10]: 13.5% | inhibition of growth at 10 µM [11]: 15% | inhibition of growth at 10 µM [12]: 19.8% | inhibition of growth at 10 µM [13]: 12.8% | inhibition of growth at 10 µM [14]: 18.7% | inhibition of growth at 10 µM [15]: 16.6% | inhibition of growth at 10 µM [16]: 65.1% | inhibition of growth at 10 µM [17]: 64.3% | inhibition of growth at 10 µM [18]: 55.6% | inhibition of growth at 10 µM [19]: 12% | inhibition of growth at 10 µM [20]: < 10% | inhibition of growth at 10 µM [21]: < 10% | inhibition of growth at 10 µM [22]: < 10% | inhibition of growth at 10 µM [23]: 15.6% | inhibition of growth at 10 µM [24]: 75.3% | inhibition of growth at 10 µM [25]: < 10% | inhibition of growth at 10 µM [26]: 12.4% | inhibition of growth at 10 µM [27]: < 10% | inhibition of growth at 10 µM [28]: < 10% | inhibition of growth at 10 µM [29]: 11.2% | inhibition of growth at 10 µM [30]: 19.2% | inhibition of growth at 10 µM [31]: 10.3% | inhibition of growth at 10 µM [32]: < 10% | inhibition of growth at 10 µM [33]: 15% | inhibition of growth at 10 µM [34]: 11% | inhibition of growth at 10 µM [35]: < 10% | inhibition of growth at 10 µM [36]: 12.2% | inhibition of growth at 10 µM [37]: < 10% | inhibition of growth at 10 µM [38]: 23.1% | inhibition of growth at 10 µM [39]: 16.6% | inhibition of growth at 10 µM [40]: < 10% | inhibition of growth at 10 µM [41]: 35.2% | inhibition of growth at 10 µM [42]: 20.3% | inhibition of growth at 10 µM [43]: 43.2% | inhibition of growth at 10 µM [44]: 35.2% | inhibition of growth at 10 µM [45]: 10% | inhibition of growth at 10 µM [46]: < 10% | inhibition of growth at 10 µM [47]: 15.8% | inhibition of growth at 10 µM [48]: 31.4%

From ChEMBL document CHEMBL4665624, “Synthesis of 5-(4-(1H-phenanthro[9,10-d]imidazol-2-yl)benzylidene)thiazolidine-2,4-dione as promising DNA and serum albumin-binding agents and evaluation of antitumor activity” (Eur J Med Chem, 2019)
